Test results taken from patent US20230257351A1, “SUBSTITUTED N-[…] HAVING P2X4 RECEPTOR ANTAGONISTIC ACTIVITY” (Bayer Aktiengesellschaft, priority 2020, published 2023).

What was measured:
rat P2X4 = target: T1, rat P2X4 (Rattus norvegicus, UniProt P51577); assay: FLIPR Method for Rat P2X4 1321N1 Astrocytoma Cells; format: cell-based; details: 1321N1 stably expressing rat P2X4; agonist MgATP 5 μM (EC80)
T1 construct: expressed in transfected cells
T1 sequence (P51577 1-388): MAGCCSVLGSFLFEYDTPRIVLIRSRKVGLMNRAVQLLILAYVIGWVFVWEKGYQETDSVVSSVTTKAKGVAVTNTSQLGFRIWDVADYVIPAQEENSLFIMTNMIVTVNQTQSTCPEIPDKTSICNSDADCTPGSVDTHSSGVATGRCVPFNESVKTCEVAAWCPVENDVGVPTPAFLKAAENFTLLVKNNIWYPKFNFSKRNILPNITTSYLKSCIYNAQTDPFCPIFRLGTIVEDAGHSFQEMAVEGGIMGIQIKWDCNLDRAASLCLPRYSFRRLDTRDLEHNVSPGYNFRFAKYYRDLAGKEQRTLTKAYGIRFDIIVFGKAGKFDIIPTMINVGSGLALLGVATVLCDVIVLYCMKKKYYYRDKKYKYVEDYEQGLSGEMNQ
Summary of the method: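 1321N1 cells stably expressing rat P2X4, Fluo8-AM loaded; compounds (25 μM to 1 nM final, ten concentrations) preincubated 30 min at room temperature, then MgATP added at 5 μM (EC80). Calcium fluorescence read on FLIPR before and after agonist; triplicate data normalized to agonist control, four-parameter fit gives IC50.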

human P2X4 = target: T2, human P2X4 (Homo sapiens, UniProt Q99571); assay: Human P2X4 HEK Cell FLIPR Assay; format: cell-based; details: HEK293 stably expressing human P2X4, agonist Bz-ATP 3 μM (EC80); for IC50: read-out: Human P2X4 HEK Cells (FLIPR Assay) avg IC50
T2 construct: expressed in transfected cells
T2 sequence (Q99571 1-388): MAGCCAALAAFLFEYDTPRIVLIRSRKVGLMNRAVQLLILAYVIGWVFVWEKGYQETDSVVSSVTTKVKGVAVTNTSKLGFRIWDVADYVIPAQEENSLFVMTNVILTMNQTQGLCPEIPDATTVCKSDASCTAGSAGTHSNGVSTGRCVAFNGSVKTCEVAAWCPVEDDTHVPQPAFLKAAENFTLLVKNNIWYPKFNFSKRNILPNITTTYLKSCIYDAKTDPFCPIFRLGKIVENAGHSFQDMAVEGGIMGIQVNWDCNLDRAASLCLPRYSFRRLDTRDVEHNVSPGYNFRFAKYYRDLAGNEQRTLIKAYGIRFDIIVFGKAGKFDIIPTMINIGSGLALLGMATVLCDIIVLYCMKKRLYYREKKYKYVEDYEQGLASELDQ
Summary of the method: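 Compounds were preincubated 30 min at room temperature on Fluo8-AM-loaded HEK293 cells stably expressing human P2X4. The response was the calcium fluorescence rise on Bz-ATP addition.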

[1] = test system: intraplantar Complete Freund's Adjuvant (CFA)-induced acute inflammatory pain; assay: CFA Inflammation Model in Rats with Pain Behaviour Read Out; format: in vivo, male Sprague Dawley rats; details: for PWT 2 hour-post drug / PWT 4 hour-post drug: mean PWT
Protocol: Compound was tested in the model of intraplantar Complete Freund's Adjuvant (CFA)-induced acute (48-hours setting) inflammatory pain in male Sprague Dawley rats. Briefly, 25 μl of CFA at 1 mg/ml was injected into the plantar surface of one hind paw. Mechanical hyperalgesia was measured using the Pressure Application Measurement apparatus (Ugo Basile, Gemonio, Italy). A linearly increasing pressure was applied to an area of approximately 50 mm^2 of the plantar side of the hind paw until a behavioural response (paw withdrawal) was observed or until the pressure reached 1000 grams of force (gf). The pressure at which the behavioural response occurred was recorded as the “Paw Withdrawal Threshold” (PWT). Both CFA-injected and contralateral PWTs were determined for each rat, in each treatment group and at each time point of the studies. The measurements were performed blinded. […] Compound or vehicle (10% DMSO, 40% Solutol, 50% water for injection, vol/vol) were dosed via oral route (p.o.) once daily (QD) or twice daily (BID) during 3 days, starting before CFA injection. Data were expressed as the mean PWT for each treatment group and at each time point. PWT data were analysed by performing a two way ANOVA with repeated measures (time×treatment). Planned comparison of means (each versus vehicle) was performed by using a Dunnett's post hoc test, provided that a main effect was detected. For p values less than 0.05, the results were deemed to be statistically significant.

[2] = test system: neuropathic mechanical allodynia induced by CCI surgery; assay: Chronic Constriction Injury (CCI) Neuropathic Pain Model in Rats with Pain Behavior Read Out; format: in vivo, male Sprague-Dawley rats; details: rat CCI; von Frey; gabapentin 100 mg/kg SID on days 0, 2, 5, 9; all post-dose time points
Protocol: Aim of the study was to test the efficacy of example 68 at ameliorating neuropathic mechanical allodynia. Male Sprague-Dawley rats were subject to chronic constriction injury of the sciatic nerve to induce neuropathic pain. Of those rats, 10 per group were assigned to treatment conditions involving BID drug administration for 10 days and behavioral assessment of mechanical sensitivity for allodynia with von Frey testing (vF). Behavior was assessed pre- and postdosing on Days 0, 2, 5, and 9. Rats were treated with Vehicle or test article BID on days 0 through 9, and rats in the gabapentin treatment group received gabapentin SID on days 0, 2, 5, and 9 in conjunction with behavioral assessment.
As vehicle Solutol/DMSO/WFI (40/10/50) was employed. Application volume for the per oral administration was 10 ml/kg.
Neuropathy was induced in male Sprague-Dawley rats by tying four loose ligatures of chromic gut around the common sciatic nerve in deeply anesthetized rats like described in Bennett, G. J., and Y. K. Xie. “A Peripheral Mononeuropathy in Rat That Produces Disorders of Pain Sensation like Those Seen in Man.” Pain 33 (1988): 87-107.
Mechanical allodynia was measured using 8 Semmes-Weinstein filaments (Stoelting©; Wood Dale, Ill., USA) with varying stiffness (0.4, 0.6, 1.0, 2.0, 4.0, 6.0, 8.0, and 15 g) according to the up-down method1. Animals were placed in individual acrylic chambers on a metal mesh surface and allowed to acclimate to their surroundings for a minimum of 15 minutes before testing. Each filament was presented perpendicular to the plantar surface with sufficient force to cause slight buckling against the paw and held for approximately 6 seconds or until a positive response is noted (paw sharply withdrawn).
Testing was initiated with the 2.0 g filament. In the absence of a paw withdrawal response, the next stronger stimulus was presented. In the event of paw withdrawal, the next weaker stimulus was used. […]
The 50% response threshold is calculated using the formula: […]

[3] = rat CFA, 50 mg/kg QD p.o. during 3 days
[4] = rat CFA, 100 mg/kg QD p.o. during 3 days

Compound | IC50 (rat P2X4) [nM] | Rat P2X4 1321N1 Astrocytoma Cells (FLIPR Assay) avg Efficacy (rat P2X4) [%] | Human P2X4 HEK Cells (FLIPR Assay) avg Efficacy (human P2X4) [%] | IC50 (human P2X4) [nM] | PWT 2 hour-post drug [1, 3] [gf] | PWT 4 hour-post drug [1, 3] [gf] | PWT 2 hour-post drug [1, 4] [gf] | PWT 4 hour-post drug [1, 4] [gf] | pain after treatment ([1]; rat CFA, 50 and 100 mg/kg doses QD, 2 and 4 hours after last administration) | development of inflammatory pain after the injection of CFA ([1]; rat, oral administration QD during 3 days) | paw withdrawal thresholds [2]
CC(=O)N(c1ccc(F)cc1)c1cc(NC(=O)Cc2cccc(F)c2Cl)ccn1 [Example 2, N-{4-[2-(2-chloro-3-fluorophenyl)acetamido]pyridin-2-yl}-N-(4-fluorophenyl)acetamide] | 358 | 95 | 97 | 212 | 727 | 688 | 763 | 839 | significantly reduced pain | prevented the development of inflammatory pain | –
CC(=O)N(c1cccc(Cl)c1)c1cc(NC(=O)Cc2cccc(F)c2Cl)ccn1 [Example 133, N-{4-[2-(2-chloro-3-fluorophenyl)acetamido]pyridin-2-yl}-N-(3-chlorophenyl)acetamide] | 325 | 100 | 100 | 193 | – | – | – | – | – | – | –
CC(=O)N(c1cccc(Cl)c1)c1cc(NC(=O)Cc2c(F)cccc2Cl)ccn1 [Example 135, N-{4-[2-(2-chloro-6-fluorophenyl)acetamido]pyridin-2-yl}-N-(3-chlorophenyl)acetamide] | 264 | 96 | 99 | 281 | – | – | – | – | – | – | –
CCCC(=O)N(c1ccc(F)cc1)c1cc(NC(=O)Cc2ccc(F)cc2Cl)ccn1 [Example 141, N-{4-[2-(2-chloro-4-fluorophenyl)acetamido]pyridin-2-yl}-N-(4-fluorophenyl)butanamide] | 726 | 100 | 99 | 891 | – | – | – | – | – | – | –
CCCC(=O)N(c1ccc(F)cc1)c1cc(NC(=O)Cc2c(F)cccc2Cl)ccn1 [Example 142, N-{4-[2-(2-chloro-6-fluorophenyl)acetamido]pyridin-2-yl}-N-(4-fluorophenyl)butanamide] | 767 | 98 | 86 | 796 | – | – | – | – | – | – | –
CCCC(=O)N(c1ccc(F)cc1)c1cc(NC(=O)Cc2ccccc2Cl)ccn1 [Example 143, N-{4-[2-(2-chlorophenyl)acetamido]pyridin-2-yl}-N-(4-fluorophenyl)butanamide] | 934 | 101 | 94 | 723 | – | – | – | – | – | – | –
CCCC(=O)N(c1ccc(F)cc1)c1cc(NC(=O)Cc2c(Cl)cccc2Cl)ccn1 [Example 144, N-{4-[2-(2,6-dichlorophenyl)acetamido]pyridin-2-yl}-N-(4-fluorophenyl)butanamide] | 557 | 100 | 90 | 648 | – | – | – | – | – | – | –
NCC1(CC(=O)O)CCCCC1 [Gabapentin, gabapentin, reference compound] | – | – | – | – | – | – | – | – | – | – | significantly increased paw withdrawal thresholds
